How the values were obtained:
[1] = target: T1, BTK enzyme (recombinant full-length BTK, hBTK) (Homo sapiens, UniProt Q06187); assay: Btk enzyme activity assay (LANCE TR-FRET); format: biochemical; conditions: 50 pM hBTK, 25 μM ATP, 60 minute compound and enzyme incubation, concentration range 1 μM to 0.017 nM, read-out: BTK binding IC50
T1 construct: recombinant protein from baculovirus-transfected S 19 cells: full-length BTK, 6 HIS-tag cleaved; 6 HIS-tag (cleaved yes); made in house

[2] = test system: adenosine uptake into HeLa cells; assay: [3H]Adenosine uptake assay; format: cell-based; conditions: Homo sapiens; accumulation of [3H]adenosine into HeLa cells; concentration range 10 μM to 0.032 nM; read-out: ADU inhibition IC50
Method in brief: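 HeLa cells (25 000/well), plated overnight, were preincubated 30 minutes at ambient temperature with compound in HBSS + 5% FBS. Ten-point titrations ran from 10 μM to 0.032 nM final. [3H]adenosine was added from a 500 nM solution for 60 minutes, and uptake was measured by scintillation proximity counting; IC50 came from a 4-parameter fit.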

T1 sequence (Q06187 whole entry): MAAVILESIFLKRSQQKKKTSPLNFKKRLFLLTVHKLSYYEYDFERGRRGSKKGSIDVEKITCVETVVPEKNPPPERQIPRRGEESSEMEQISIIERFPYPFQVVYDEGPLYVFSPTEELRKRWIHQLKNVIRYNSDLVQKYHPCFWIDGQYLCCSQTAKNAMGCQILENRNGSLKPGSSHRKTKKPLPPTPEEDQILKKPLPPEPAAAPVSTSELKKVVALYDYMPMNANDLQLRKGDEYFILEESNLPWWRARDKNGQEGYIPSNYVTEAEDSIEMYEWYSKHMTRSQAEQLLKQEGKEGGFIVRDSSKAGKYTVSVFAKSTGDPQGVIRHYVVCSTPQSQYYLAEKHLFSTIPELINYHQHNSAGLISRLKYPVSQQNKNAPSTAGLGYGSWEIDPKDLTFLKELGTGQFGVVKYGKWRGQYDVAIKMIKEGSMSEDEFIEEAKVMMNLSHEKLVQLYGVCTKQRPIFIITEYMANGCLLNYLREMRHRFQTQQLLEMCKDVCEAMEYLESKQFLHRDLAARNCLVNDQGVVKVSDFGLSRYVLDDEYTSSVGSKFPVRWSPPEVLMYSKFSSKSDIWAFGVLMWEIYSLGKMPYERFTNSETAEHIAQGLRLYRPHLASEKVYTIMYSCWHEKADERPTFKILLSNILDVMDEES

Compound	IC50 [1] [nM]	IC50 [2] [nM]
C[C@@H]1CO[C@@H](c2nc(-c3ccc(C(=O)Nc4cc(C(F)(F)F)ccn4)cc3F)c3c(N)nccn23)CN1C1CCOCC1 [Example 73, 4-{8-amino-3-[(2R,5R)-5-methyl-4-(tetrahydro-2H-pyran-4-yl)morpholin-2-yl]imidazo[1,5-a]pyrazin-1-yl}-3-fluoro-N-[4-(trifluoromethyl)pyridin-2-yl]benzamide]	2.67	122
C[C@H]1CO[C@@H](c2nc(-c3ccc(C(=O)Nc4cc(C(F)(F)F)ccn4)cc3F)c3c(N)nccn23)CN1Cc1cnn(C)c1 [Example 74, 4-(8-amino-3-{(2R,5S)-5-methyl-4-[(1-methyl-1H-pyrazol-4-yl)methyl]morpholin-2-yl}imidazo[1,5-a]pyrazin-1-yl)-3-fluoro-N-[4-(trifluoromethyl)pyridin-2-yl]benzamide]	0.47	224
C[C@H]1CO[C@@H](c2nc(-c3ccc(C(=O)Nc4cc(C(F)(F)F)ccn4)cc3F)c3c(N)nccn23)CN1C1CCOCC1 [Example 75, 4-{8-amino-3-[(2R,5S)-5-methyl-4-(tetrahydro-2H-pyran-4-yl)morpholin-2-yl]imidazo[1,5-a]pyrazin-1-yl}-3-fluoro-N-[4-(trifluoromethyl)pyridin-2-yl]benzamide]	0.329	350
C[C@H]1CO[C@@H](c2nc(-c3ccc(C(=O)Nc4cc(C(F)(F)F)ccn4)cc3F)c3c(N)nccn23)CN1C1COC1 [Example 76, 4-{8-amino-3-[(2R,5S)-5-methyl-4-oxetan-3-ylmorpholin-2-yl]imidazo[1,5-a]pyrazin-1-yl}-3-fluoro-N-[4-(trifluoromethyl)pyridin-2-yl]benzamide]	0.531	237
C[C@H]1CO[C@@H](c2nc(-c3ccc(C(=O)Nc4cc(C(F)(F)F)ccn4)cc3F)c3c(N)nccn23)CN1C(=O)C1(C)COC1 [Example 77, 4-(8-amino-3-{(2R,5S)-5-methyl-4-[(3-methyloxetan-3-yl)carbonyl]morpholin-2-yl}imidazo[1,5-a]pyrazin-1-yl)-3-fluoro-N-[4-(trifluoromethyl)pyridin-2-yl]benzamide]	0.44	239
COCC(=O)N1C[C@H](c2nc(-c3ccc(C(=O)Nc4cc(C(F)(F)F)ccn4)cc3)c3c(N)nccn23)OC[C@@H]1C [Example 78, 4-{8-amino-3-[(2R,5S)-4-(methoxyacetyl)-5-methylmorpholin-2-yl]imidazo[1,5-a]pyrazin-1-yl}-N-[4-(trifluoromethyl)pyridin-2-yl]benzamide]	0.738	260
CO[C@H](C)C(=O)N1C[C@H](c2nc(-c3ccc(C(=O)Nc4cc(C(F)(F)F)ccn4)cc3F)c3c(N)nccn23)OC[C@@H]1C [Example 79, 4-(8-amino-3-{(2R,5S)-4-[(2R)-2-methoxypropanoyl]-5-methylmorpholin-2-yl}imidazo[1,5-a]pyrazin-1-yl)-3-fluoro-N-[4-(trifluoromethyl)pyridin-2-yl]benzamide]	0.423	288
C[C@H](O)C(=O)N1C[C@H](c2nc(-c3ccc(C(=O)Nc4cc(C(F)(F)F)ccn4)cc3)c3c(N)nccn23)OC[C@@H]1C [Example 80, 4-(8-amino-3-{(2R,5S)-4-[(2S)-2-hydroxypropanoyl]-5-methylmorpholin-2-yl}imidazo[1,5-a]pyrazin-1-yl)-N-[4-(trifluoromethyl)pyridin-2-yl]benzamide]	0.4	188
C[C@H]1CO[C@@H](c2nc(-c3ccc(C(=O)Nc4cc(C(F)(F)F)ccn4)cc3)c3c(N)nccn23)CN1C(=O)C1(C)CC1 [Example 81, 4-(8-amino-3-{(2R,5S)-5-methyl-4-[(1-methylcyclopropyl)carbonyl]morpholin-2-yl}imidazo[1,5-a]pyrazin-1-yl)-N-[4-(trifluoromethyl)pyridin-2-yl]benzamide]	0.51	107
CC(C)C(=O)N1C[C@H](c2nc(-c3ccc(C(=O)Nc4cc(C(F)(F)F)ccn4)cc3)c3c(N)nccn23)OC[C@@H]1C [Example 82, 4-{8-amino-3-[(2R,5S)-5-methyl-4-(2-methylpropanoyl)morpholin-2-yl]imidazo[1,5-a]pyrazin-1-yl}-N-[4-(trifluoromethyl)pyridin-2-yl]benzamide]	0.546	262
CC(=O)N1C[C@H](c2nc(-c3ccc(C(=O)Nc4cc(C(F)(F)F)ccn4)cc3)c3c(N)nccn23)OC[C@@H]1C [Example 83, 4-{3-[(2R,5S)-4-acetyl-5-methylmorpholin-2-yl]-8-aminoimidazo[1,5-a]pyrazin-1-yl}-N-[4-(trifluoromethyl)pyridin-2-yl]benzamide]	0.363	188
C[C@H](O)C(=O)N1C[C@H](c2nc(-c3ccc(C(=O)Nc4cc(C(F)(F)F)ccn4)cc3F)c3c(N)nccn23)OC[C@@H]1C [Example 84, 4-(8-amino-3-{(2R,5S)-4-[(2S)-2-hydroxypropanoyl]-5-methylmorpholin-2-yl}imidazo[1,5-a]pyrazin-1-yl)-3-fluoro-N-[4-(trifluoromethyl)pyridin-2-yl]benzamide]	0.368	360
C[C@H]1CO[C@@H](c2nc(-c3ccc(C(=O)Nc4cc(C(F)(F)F)ccn4)cc3F)c3c(N)nccn23)CN1C(=O)C1(C)CC1 [Example 85, 4-(8-amino-3-{(2R,5S)-5-methyl-4-[(1-methylcyclopropyl)carbonyl]morpholin-2-yl}imidazo[1,5-a]pyrazin-1-yl)-3-fluoro-N-[4-(trifluoromethyl)pyridin-2-yl]benzamide]	0.548	189
CC(C)C(=O)N1C[C@H](c2nc(-c3ccc(C(=O)Nc4cc(C(F)(F)F)ccn4)cc3F)c3c(N)nccn23)OC[C@@H]1C [Example 87, 4-{8-amino-3-[(2R,5S)-5-methyl-4-(2-methylpropanoyl)morpholin-2-yl]imidazo[1,5-a]pyrazin-1-yl}-3-fluoro-N-[4-(trifluoromethyl)pyridin-2-yl]benzamide]	0.738	141
CC(=O)N1C[C@H](c2nc(-c3ccc(C(=O)Nc4cc(C(F)(F)F)ccn4)cc3F)c3c(N)nccn23)OC[C@@H]1C [Example 88, 4-{3-[(2R,5S)-4-acetyl-5-methylmorpholin-2-yl]-8-aminoimidazo[1,5-a]pyrazin-1-yl}-3-fluoro-N-[4-(trifluoromethyl)pyridin-2-yl]benzamide]	0.343	215
C[C@H]1CC[C@@H](c2nc(-c3ccc(C(=O)Nc4cc(C#N)ccn4)cc3)c3c(N)nccn23)CN1C(=O)C1CC1 [Example 89, 4-{8-amino-3-[(3R,6S)-1-(cyclopropylcarbonyl)-6-methylpiperidin-3-yl]imidazo[1,5-a]pyrazin-1-yl}-N-(4-cyanopyridin-2-yl)benzamide]	0.297	47.5
C[C@H]1CC[C@@H](c2nc(-c3ccc(C(=O)Nc4cc(OC5CC5)ccn4)cc3)c3c(N)nccn23)CN1C(=O)N(C)C [Example 90, (2S,5R)-5-[8-amino-1-(4-{[4-(cyclopropyloxy)pyridin-2-yl]carbamoyl}phenyl)imidazo[1,5-a]pyrazin-3-yl]-N,N,2-trimethylpiperidine-1-carboxamide]	0.448	14

Source: US20170349593A1, “BTK INHIBITORS” (MERCK SHARP & DOHME CORP., priority 2014, published 2017)
